According to BindingDB's records for doi:10.1080/14756360400004565 (Universit&Eacute, 2004):

target: Glycogen synthase kinase-3 beta (Homo sapiens, UniProt P49841); test: Kinase Assay
Protocol: Kinase activities were assayed according to the methodology developed by the Cell Cycle Group of the Station Biologique (CNRS).

Sequence of Glycogen synthase kinase-3 beta (P49841 whole entry): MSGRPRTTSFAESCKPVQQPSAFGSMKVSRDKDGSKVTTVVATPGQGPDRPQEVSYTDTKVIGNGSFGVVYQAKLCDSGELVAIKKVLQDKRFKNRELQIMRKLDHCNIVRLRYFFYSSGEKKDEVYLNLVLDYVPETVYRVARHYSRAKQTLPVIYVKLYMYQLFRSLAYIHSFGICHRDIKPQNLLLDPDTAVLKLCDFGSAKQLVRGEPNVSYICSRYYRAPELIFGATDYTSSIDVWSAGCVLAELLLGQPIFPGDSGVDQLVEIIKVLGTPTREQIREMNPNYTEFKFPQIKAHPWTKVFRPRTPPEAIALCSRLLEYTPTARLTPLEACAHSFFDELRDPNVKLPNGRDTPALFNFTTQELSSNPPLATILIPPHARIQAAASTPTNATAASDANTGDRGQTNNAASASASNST

`COc1ccc(-c2csc3c2-n2cccc2C3=O)cc1OCc1ccccc1` and `COc1ccc(-c2csc3c2-n2cccc2C3O)cc1OCc1ccccc1` (centres undefined) [Thienopyrrolizine derivative, 13e] cannot be ordered by IC50: > 50 µM for the first, > 50 µM for the second.

Compared with `COc1ccc(-c2csc3c2-n2cccc2C3=O)cc1O` [MR-22388], `COc1ccc(-c2csc3c2-n2cccc2C3=O)cc1OC(C)=O` [Thienopyrrolizine derivative, 4k] is higher in IC50: 1.5 µM for the first, > 50 µM for the second.

`Cc1ccc(-c2csc3c2-n2cccc2C3=O)cc1` [Thienopyrrolizine derivative, 4a] and `CCOc1ccc(-c2csc3c2-n2cccc2C3=O)cc1` [Thienopyrrolizine derivative, 4c] cannot be ordered by IC50: > 50 µM for the first, > 50 µM for the second.

`COc1cccc(-c2csc3c2-n2cccc2C3=O)c1` [Thienopyrrolizine derivative, 4b] and `CCOC(=O)Oc1cc(-c2csc3c2-n2cccc2C3=O)ccc1OC` [Thienopyrrolizine derivative, 4l] cannot be ordered by IC50: > 50 µM for the first, > 50 µM for the second.

`CC(=O)Oc1ccc(-c2csc3c2-n2cccc2C3=O)cc1OC(C)=O` [Thienopyrrolizine derivative, 4h] and `CCC(=O)Oc1ccc(-c2csc3c2-n2cccc2C3=O)cc1OC(=O)CC` [Thienopyrrolizine derivative, 4i] cannot be ordered by IC50: > 50 µM for the first, > 50 µM for the second.

First: COc1ccc(-c2csc3c2-n2cccc2C3=O)cc1OC(=O)C(C)(C)C [Thienopyrrolizine derivative, 4m]
Second: COc1ccc(-c2csc3c2-n2cccc2C3=O)cc1OC(=O)CCCC(=O)O [Thienopyrrolizine derivative, 4n]
The IC50 of the first is higher: > 50 µM for the first, 11 µM for the second.

Going from `O=C1c2cscc2-n2cccc21` [Thienopyrrolizine derivative, 5] to `COc1ccc(-c2csc3c2-n2cccc2C3O)cc1O` (centres undefined) [Thienopyrrolizine derivative, 13g], the IC50 falls from > 50 µM to 19 µM.
